# Active and inactive are the calls of the source. No cut-off for these calls is given here.
# Assays:
# [1] = system: RAW264.7; test: Anti-inflammatory activity against mouse RAW264.7 cells assessed as reduction in NO level pretreated with compound for 1 hr followed by LPS-induction and measured after 24 hrs; format: functional, cell-based; settings: dose 1.25-20 µM, time 25.0 hrs
# [2] = system: Mus musculus; test: Anti-inflammatory activity against LPS-induced acute […] injury C57BL/6 mouse model assessed as improvement in alveolar wall thickness at 20 mg/kg, ip administered for 1 hr and measured after 6 hrs by H and E staining based analysis; format: functional, organism-based; settings: time 7.0 hrs
# [3] = system: Mus musculus; test: Anti-inflammatory activity against LPS-induced acute […] injury C57BL/6 mouse model assessed as decrease in IL-6 mRNA expression in lung at 20 mg/kg, ip administered for 1 hr and measured after 6 hrs by RT-qPCR analysis; format: functional, organism-based; settings: time 7.0 hrs
# [4] = system: Mus musculus; test: Anti-inflammatory activity against LPS-induced acute […] injury C57BL/6 mouse model assessed as reduction in IL-1beta level in BALF at 20 mg/kg, ip administered for 1 hr and measured after 6 hrs by ELISA analysis; format: functional, organism-based; settings: time 7.0 hrs
# [5] = system: Mus musculus; test: Anti-inflammatory activity against LPS-induced acute […] injury C57BL/6 mouse model assessed as reduction in lung edema at 20 mg/kg, ip administered for 1 hr and measured after 6 hrs by H and E staining based analysis; format: functional, organism-based; settings: time 7.0 hrs
# [6] = system: RAW264.7; test: Cytotoxicity against mouse RAW264.7 cells upto 20 uM incubated for 24 hrs by CCK-8 assay; format: toxicity, cell-based; settings: raw264.7, 24 h
# [7] = system: Mus musculus; test: Anti-inflammatory activity against LPS-induced acute […] injury C57BL/6 mouse model assessed as reduction in wet weight to dry weight ratio in lung at 20 mg/kg, ip administered for 1 hr and measured after 6 hrs; format: functional, organism-based; settings: time 7.0 hrs
# [8] = system: RAW264.7; test: Anti-inflammatory activity against mouse RAW264.7 cells assessed as reduction in LPS-induced IL-1beta level pretreated with compound for 1 hr followed by LPS-induction and measured after 24 hrs by ELISA analysis; format: functional, cell-based; settings: dose 1.25-20 µM, time 25.0 hrs
# [9] = system: Mus musculus; test: Anti-inflammatory activity against LPS-induced acute […] injury C57BL/6 mouse model assessed as reduction in inflammatory cell infiltration at 20 mg/kg, ip administered for 1 hr and measured after 6 hrs by H and E staining based analysis; format: functional, organism-based; settings: time 7.0 hrs
# [10] = system: Mus musculus; test: Anti-inflammatory activity against LPS-induced acute […] injury C57BL/6 mouse model assessed as reduction in TNF-alpha level in BALF at 20 mg/kg, ip administered for 1 hr and measured after 6 hrs by ELISA analysis; format: functional, organism-based; settings: time 7.0 hrs
# [11] = system: Mus musculus; test: Anti-inflammatory activity against LPS-induced acute […] injury C57BL/6 mouse model assessed as improvement in lung edema at 20 mg/kg, ip administered for 1 hr and measured after 6 hrs by H and E staining based analysis; format: functional, organism-based; settings: time 7.0 hrs
# [12] = system: RAW264.7; test: Anti-inflammatory activity against mouse RAW264.7 cells assessed as inhibition of LPS-induced IL-1beta mRNA expression pretreated with compound for 1 hr followed by LPS-induction and measured after 24 hrs by RT-qPCR analysis; format: functional, cell-based; settings: dose 10-20 µM, time 25.0 hrs
# [13] = system: RAW264.7; test: Anti-inflammatory activity against mouse RAW264.7 cells assessed as inhibition of LPS-induced NO production at 20 uM incubated for 24 hrs; format: functional, cell-based
# [14] = system: RAW264.7; test: Anti-inflammatory activity against mouse RAW264.7 cells assessed as inhibition of LPS-induced TNF-alpha mRNA expression pretreated with compound for 1 hr followed by LPS-induction and measured after 24 hrs by RT-qPCR analysis; format: functional, cell-based; settings: dose 10-20 µM, time 25.0 hrs
# [15] = system: Mus musculus; test: Anti-inflammatory activity against LPS-induced acute […] injury C57BL/6 mouse model assessed as reduction in IL-6 level in BALF at 20 mg/kg, ip administered for 1 hr and measured after 6 hrs by ELISA analysis; format: functional, organism-based; settings: time 7.0 hrs
# [16] = system: Mus musculus; test: Anti-inflammatory activity against LPS-induced acute […] injury C57BL/6 mouse model assessed as improvement in alveolar structure at 20 mg/kg, ip administered for 1 hr and measured after 6 hrs by H and E staining based analysis; format: functional, organism-based; settings: time 7.0 hrs
# [17] = system: RAW264.7; test: Anti-inflammatory activity against mouse RAW264.7 cells assessed as reduction in LPS-induced IkappaBalpha level at 10 to 20 uM pretreated with compound for 1 hr followed by LPS-induction and measured after 4 hrs by Western blot analysis; format: functional, cell-based; settings: dose 10-20 µM, time 5.0 hrs
# [18] = system: RAW264.7; test: Anti-inflammatory activity against mouse RAW264.7 cells assessed as reduction in LPS-induced TNF-alpha level pretreated with compound for 1 hr followed by LPS-induction and measured after 24 hrs by ELISA analysis; format: functional, cell-based; settings: dose 1.25-20 µM, time 25.0 hrs
# [19] = system: Mus musculus; test: Anti-inflammatory activity against LPS-induced acute […] injury C57BL/6 mouse model assessed as reduction in TNF-alpha level in serum at 20 mg/kg, ip administered for 1 hr and measured after 6 hrs by ELISA analysis; format: functional, organism-based; settings: time 7.0 hrs
# [20] = system: RAW264.7; test: Anti-inflammatory activity against mouse RAW264.7 cells assessed as inhibition of LPS-induced nuclear translocation at 10 to 20 uM pretreated with compound for 1 hr followed by LPS-induction and measured after 4 hrs by DAPI staining based fluorescence microscopic analysis; format: functional, cell-based; settings: dose 10-20 µM, time 5.0 hrs
# [21] = system: Mus musculus; test: Anti-inflammatory activity against LPS-induced acute […] injury C57BL/6 mouse model assessed as decrease in IL-1beta mRNA expression in lung at 20 mg/kg, ip administered for 1 hr and measured after 6 hrs by RT-qPCR analysis; format: functional, organism-based; settings: time 7.0 hrs
# [22] = system: Mus musculus; test: Anti-inflammatory activity against LPS-induced acute […] injury C57BL/6 mouse model assessed as reduction in congestion in lung at 20 mg/kg, ip administered for 1 hr and measured after 6 hrs by H and E staining based analysis; format: functional, organism-based; settings: time 7.0 hrs
# [23] = system: RAW264.7; test: Anti-inflammatory activity against mouse RAW264.7 cells assessed as reduction in LPS-induced IL-6 level pretreated with compound for 1 hr followed by LPS-induction and measured after 24 hrs by ELISA analysis; format: functional, cell-based; settings: dose 1.25-20 µM, time 25.0 hrs
# [24] = system: Mus musculus; test: Anti-inflammatory activity against LPS-induced acute […] injury C57BL/6 mouse model assessed as reduction in alveolar thickness in lung at 20 mg/kg, ip administered for 1 hr and measured after 6 hrs by H and E staining based analysis; format: functional, organism-based; settings: time 7.0 hrs
# [25] = system: RAW264.7; test: Anti-inflammatory activity against mouse RAW264.7 cells assessed as inhibition of LPS-stimulated nitric oxide production at 2.5 to 20 uM incubated for 5 hrs by Griess reagent based microplate reader analysis; format: functional, cell-based; settings: dose 2.5-20 µM
# [26] = system: Mus musculus; test: Anti-inflammatory activity against LPS-induced acute […] injury C57BL/6 mouse model assessed as reduction in IL-6 level in serum at 20 mg/kg, ip administered for 1 hr and measured after 6 hrs by ELISA analysis; format: functional, organism-based; settings: time 7.0 hrs
# [27] = system: Mus musculus; test: Anti-inflammatory activity against LPS-induced acute […] injury C57BL/6 mouse model assessed as reduction in IL-1beta level in serum at 20 mg/kg, ip administered for 1 hr and measured after 6 hrs by ELISA analysis; format: functional, organism-based; settings: time 7.0 hrs
# [28] = system: RAW264.7; test: Anti-inflammatory activity against mouse RAW264.7 cells assessed as inhibition of LPS-induced p65 phosphorylation at 10 to 20 uM pretreated with compound for 1 hr followed by LPS-induction and measured after 4 hrs by Western blot analysis; format: functional, cell-based; settings: dose 10-20 µM, time 5.0 hrs
# [29] = system: Mus musculus; test: Anti-inflammatory activity against LPS-induced acute […] injury C57BL/6 mouse model assessed as reduction in bleeding points in lung at 20 mg/kg, ip administered for 1 hr and measured after 6 hrs by H and E staining based analysis; format: functional, organism-based; settings: time 7.0 hrs
# [30] = system: Mus musculus; test: Anti-inflammatory activity against LPS-induced acute […] injury C57BL/6 mouse model assessed as decrease in TNF-alpha mRNA expression in lung at 20 mg/kg, ip administered for 1 hr and measured after 6 hrs by RT-qPCR analysis; format: functional, organism-based; settings: time 7.0 hrs
# [31] = system: Mus musculus; test: Anti-inflammatory activity against LPS-induced acute […] injury C57BL/6 mouse model assessed as improvement in destruction of lung structure at 20 mg/kg, ip administered for 1 hr and measured after 6 hrs by H and E staining based analysis; format: functional, organism-based; settings: time 7.0 hrs
# [32] = system: Mus musculus; test: Anti-inflammatory activity against LPS-induced acute […] injury C57BL/6 mouse model assessed as improvement in pulmonary hemorrhage at 20 mg/kg, ip administered for 1 hr and measured after 6 hrs by H and E staining based analysis; format: functional, organism-based; settings: time 7.0 hrs
# [33] = system: RAW264.7; test: Anti-inflammatory activity against mouse RAW264.7 cells assessed as inhibition of LPS-induced IL-6 mRNA expression pretreated with compound for 1 hr followed by LPS-induction and measured after 24 hrs by RT-qPCR analysis; format: functional, cell-based; settings: dose 10-20 µM, time 25.0 hrs
smiles,measurement,setting,value
COc1cc(C[C@H](C(=O)N2CCN(c3cccc(C)c3C)CC2)[C@@H](Cc2cc(OC)c(O)c(OC)c2)C(=O)N2CCN(c3cccc(C)c3C)CC2)cc(OC)c1O,Activity,[1],Dose-Dependent Effect
same,Activity,[2],Active
same,Activity,[3],Active
same,Activity,[4],Active
same,Activity,[5],Active
same,Activity,[6],Non-Toxic
same,Activity,[7],Active
same,Activity,[8],Dose-Dependent Effect
same,Activity,[9],Active
same,Activity,[10],Active
same,Activity,[11],Active
same,Activity,[12],Dose-Dependent Effect
same,Activity,[13],Active
same,Activity,[14],Dose-Dependent Effect
same,Activity,[15],Active
same,Activity,[16],Active
same,Activity,[17],Active
same,Activity,[18],Dose-Dependent Effect
same,Activity,[19],Active
same,Activity,[20],Active
same,Activity,[21],Active
same,Activity,[22],Active
same,Activity,[23],Dose-Dependent Effect
same,Activity,[24],Active
same,Activity,[25],Active
same,Activity,[26],Active
same,Activity,[27],Active
same,Activity,[28],Active
same,Activity,[29],Active
same,Activity,[30],Active
same,Activity,[31],Active
same,Activity,[32],Active
same,Activity,[33],Dose-Dependent Effect
